One block for each compound: values may come before it.
Assay: solvent given as SMILES

emission maximum (in ClCCl): 406 nm
SMILES: CCOC(=O)c1c(-c2c(Cl)c3ccccc3oc2=O)nn(-c2ccc(Br)cc2)c1C(=O)OCC

emission maximum (in ClCCl): 384 nm
SMILES: COc1ccc(-c2cc(-c3ccc(C#N)cc3)nn2C)cc1

emission maximum (in ClC(Cl)Cl): 439 nm
SMILES: CO[Si](c1c2ccccc2cc2ccccc12)(c1c2ccccc2cc2ccccc12)c1c2ccccc2cc2ccccc12

emission maximum (in ClC(Cl)Cl): 435 nm
SMILES: F[B-]1(F)OC(c2cccc(Br)c2)=Cc2ccc3ccccc3[n+]21

emission maximum (in C1CCOC1): 386.5 nm
SMILES: C#Cn1c(-c2cc(-c3nc4ccccc4n3C#C)cc(-c3nc4ccccc4n3C#C)c2)nc2ccccc21

emission maximum (in O): 428 nm
SMILES: O=C([O-])c1cc2c(ccc3ccccc32)oc1=O

SMILES: CCn1c2ccccc2c2cc(/C=C/c3cc(/C=C/c4ccc5c(c4)c4ccccc4n5CC)[n+](CCCS(=O)(=O)[O-])c(/C=C/c4ccc5c(c4)c4ccccc4n5CC)c3)ccc21
emission maximum (in C1CCOC1): 605 nm | emission maximum (in CC#N): 611 nm | emission maximum (in CC(C)=O): 610 nm | emission maximum (in Cc1ccccc1): 599 nm

emission maximum (in C1CCCCC1): 536 nm | emission maximum (in CC#N): 638 nm | emission maximum (in CCO): 686 nm | emission maximum (in c1ccccc1): 570 nm
SMILES: CNc1cccc2c1-c1ccccc1C2=O

SMILES: C[n+]1ccc(/C=C/c2ccc([O-])cc2)cc1
emission maximum (in CC#N): 606 nm | emission maximum (in CC(C)=O): 610 nm | emission maximum (in CC(C)O): 594 nm | emission maximum (in CCCO): 587 nm | emission maximum (in CCO): 582 nm | emission maximum (in CN(C)C=O): 608 nm | emission maximum (in CO): 576 nm | emission maximum (in CS(C)=O): 608 nm | emission maximum (in ClCCl): 615 nm | emission maximum (in NC=O): 577 nm | emission maximum (in O): 560 nm | emission maximum (in OCCO): 573 nm

emission maximum (in ClCCl): 494 nm
SMILES: CCB1c2ccccc2Nc2ccccc21

emission maximum (in ClC(Cl)Cl): 651 nm
SMILES: CCCCCCCCN1C(=O)c2ccc3c4c(-c5ccc(-n6c7ccccc7c7ccccc76)cc5)cc5c6c(cc(-c7ccc(-n8c9ccccc9c9ccccc98)cc7)c(c7ccc(c2c37)C1=O)c64)C(=O)N(CCCCCCCC)C5=O

SMILES: O=c1oc2ccccc2cc1-c1nc2ccccc2o1
emission maximum (in C1CCOC1): 444 nm | emission maximum (in C1COCCO1): 443 nm | emission maximum (in CC1CCCCC1): 438 nm | emission maximum (in CC#N): 443 nm | emission maximum (in CC(C)=O): 444 nm | emission maximum (in CC(C)CO): 445 nm | emission maximum (in CC(C)O): 444 nm | emission maximum (in CCOC(C)=O): 443 nm | emission maximum (in CN(C)C=O): 445 nm | emission maximum (in CO): 440 nm | emission maximum (in CS(C)=O): 453 nm | emission maximum (in Cc1ccccc1): 445 nm | emission maximum (in ClC(Cl)(Cl)Cl): 444 nm | emission maximum (in ClC(Cl)Cl): 443 nm | emission maximum (in OCCO): 447 nm

emission maximum (in ClC(Cl)Cl): 669 nm
SMILES: Cc1cc(C)c(C2=C3C=CC=[N+]3[B-]3(c4ccccc4)Oc4cc(O)cc5c6ccc(C)cc6c6cc2n3c6c45)c(C)c1 (centres undefined)

emission maximum (in C1CCOC1): 498 nm
SMILES: C(=C\c1ccccc1/C=C/c1c2ccccc2cc2ccccc12)/c1ccncc1

emission maximum (in ClCCl): 571 nm
SMILES: COc1ccc(/C=C/C2=[O+][B-](F)(F)OC(/C=C/c3ccc(OC)cc3)=C2c2ccc(OC)cc2)cc1

emission maximum (in CO): 776 nm | emission maximum (in O): 771 nm
SMILES: CC1(C)C(/C=C/C=C/C=C/C=C2/N(S(=O)(=O)[O-])c3ccc(S(=O)(=O)[O-])cc3C2(C)C)=[N+](S(=O)(=O)[O-])c2ccc(S(=O)(=O)[O-])cc21

emission maximum (in ClCCl): 606 nm
SMILES: CCOCCOCCOC(=O)/C=C/C1=CC2=C(c3c(C)cc(C)cc3C)c3cc(/C=C/C(=O)OCCOCCOCC)cn3[B-](F)(F)[N+]2=C1

SMILES: CN(c1ccccc1)c1ccc(-c2ccc(-c3ccc(N(C)c4ccccc4)cc3)c3nc(-c4ccccc4)c(-c4ccccc4)nc23)cc1
emission maximum (in C1CCOC1): 638 nm | emission maximum (in CC#N): 659 nm | emission maximum (in CCCCCC): 598 nm | emission maximum (in CN(C)C=O): 661 nm | emission maximum (in Cc1ccccc1): 627 nm | emission maximum (in ClC(Cl)Cl): 640 nm

emission maximum (in O): 565 nm
SMILES: C/C=C/C=C/C1=NC(=C\c2ccc([O-])cc2)/C(=O)N1C

emission maximum (in C1CCCCC1): 446 nm | emission maximum (in CC#N): 538 nm | emission maximum (in CN(C)C=O): 542 nm | emission maximum (in CO): 560 nm | emission maximum (in CS(C)=O): 549 nm | emission maximum (in c1ccccc1): 464 nm
SMILES: COc1cc(/C=C/C(=O)CC(=O)/C=C/c2ccc(O)c(OC)c2)ccc1O

emission maximum (in ClCCl): 539 nm
SMILES: COCCOCCOCCOCC(COCCOCCOCCOC)Oc1cc(/C=C/c2ccc(/C=C(\C#N)c3ccccc3)cc2)c(OC(COCCOCCOCCOC)COCCOCCOCCOC)cc1/C=C/c1ccc(/C=C(\C#N)c2ccccc2)cc1

emission maximum (in CC#N): 599 nm
SMILES: CC1=C2C3=C(CCc4ccccc43)C(C)=[N+]2[B-](F)(F)n2c(C)c3c(c21)-c1ccccc1CC3

SMILES: CCn1c2ccsc2c2c3nsnc3c3c4sccc4n(CC)c3c21
emission maximum (in C1CCOC1): 539 nm | emission maximum (in CCOC(C)=O): 538 nm | emission maximum (in CN(C)C=O): 573 nm | emission maximum (in Cc1ccccc1): 523 nm | emission maximum (in ClCCl): 565 nm

SMILES: O=C(N/N=C/c1ccccc1O)c1cccc2ccccc12
emission maximum (in C1CCOC1): 436 nm | emission maximum (in CC#N): 376 nm | emission maximum (in CC(C)=O): 428 nm | emission maximum (in CCO): 429 nm | emission maximum (in CN(C)C=O): 560 nm | emission maximum (in CS(C)=O): 336 nm | emission maximum (in ClCCl): 393 nm

emission maximum (in C1CCOC1): 467 nm
SMILES: COc1ccc(C(=Cc2ccc(/C=C/c3ccc(C#N)cc3)cc2)c2ccc(OC)cc2)cc1

SMILES: CN(C)c1ccc(/C=C/C=C/c2ccc(C#N)cc2)cc1
emission maximum (in CC#N): 589 nm | emission maximum (in CCCC#N): 579 nm | emission maximum (in CCCCCC): 440 nm | emission maximum (in CCOCC): 509 nm

emission maximum (in ClC(Cl)Cl): 730 nm
SMILES: COc1ccc2c(c1)SCC1=C(c3ccccc3)C3=Nc4c(-c5ccccc5)c5c(n4[B-](F)(F)[N+]3=C12)-c1ccc(OC)cc1SC5

emission maximum (in ClC(Cl)Cl): 402 nm
SMILES: CCCCn1c2ccccc2c2ccc3c4cc(-c5ccc(C(F)(F)F)cc5)ccc4n(CCCC)c3c21

emission maximum (in ClCCl): 596 nm
SMILES: COCCOCCOCCOCC(COCCOCCOCCOC)Oc1cc(/C=C/c2ccc(C=C(C#N)C#N)cc2)c(OC(COCCOCCOCCOC)COCCOCCOCCOC)cc1/C=C/c1ccc(C=C(C#N)C#N)cc1

emission maximum (in CCCCCC): 648 nm
SMILES: CC(C)[Si](C#Cc1c2nc3ccccc3nc2c(C#C[Si](C(C)C)(C(C)C)C(C)C)c2nc3c(ccc4cc5ccccc5cc43)nc12)(C(C)C)C(C)C

emission maximum (in ClCCl): 620 nm
SMILES: COc1ccc(-c2c3cc4ccccc4cc3c(C#Cc3ccccc3)c3cc4cc(C)sc4cc23)cc1

emission maximum (in ClCCl): 511 nm
SMILES: CCCCCc1ccc(C#Cc2cc(C#Cc3ccc(CCCCC)cc3)c3ccc4c(C(=O)c5ccccc5)cc(C#Cc5ccc(CCCCC)cc5)c5ccc2c3c54)cc1

emission maximum (in CO): 811 nm
SMILES: CC1(C)C(/C=C/C2=C(c3ccc(C(=O)O)cc3)C(=C/C=C3/N(CCCCS(=O)(=O)[O-])c4ccc5ccccc5c4C3(C)C)/CCC2)=[N+](CCCCS(=O)(=O)[O-])c2ccc3ccccc3c21

SMILES: O=C(c1ccccc1)c1ccc(-n2c3ccccc3c3c2c2ccccc2n3-c2ccccc2)cc1
emission maximum (in Cc1ccccc1): 520 nm

emission maximum (in ClCCl): 546 nm
SMILES: CCCCNc1ccc2n1[B-](F)(F)[N+]1=CC(/C=C/C(=O)OC(C)(C)C)=CC1=C2c1c(C)cc(C)cc1C

emission maximum (in C1CCOC1): 498 nm
SMILES: Cc1ccc(-c2ccc(-c3ccc(-c4ccc(-c5ccc(C)cc5)cc4)c(/C(=C(/c4ccccc4)c4cc(-c5ccc(-c6ccc(C)cc6)cc5)ccc4-c4ccc(-c5ccc(C)cc5)cc4)c4ccccc4)c3)cc2)cc1

emission maximum (in CC#N): 532 nm
SMILES: Cc1ccc2c(c1)nc1c(=O)n(C)c(=O)nc-1n2C

SMILES: COc1ccc(C#Cc2nc3ccccc3nc2-c2cn(C)c3ccccc23)cc1
emission maximum (in C1CCOC1): 490 nm | emission maximum (in CC#N): 518 nm | emission maximum (in CC(C)=O): 513 nm | emission maximum (in CC(C)O): 519 nm | emission maximum (in CCO): 522 nm | emission maximum (in CCOC(C)=O): 491 nm | emission maximum (in CO): 525 nm | emission maximum (in Cc1ccccc1): 468 nm | emission maximum (in ClCCl): 506 nm

emission maximum (in C1COCCO1): 369 nm | emission maximum (in CC#N): 365.4 nm | emission maximum (in CCCCCC): 369 nm | emission maximum (in CCCCO): 370 nm | emission maximum (in CCO): 371 nm | emission maximum (in CCOC(C)=O): 367 nm | emission maximum (in CO): 368 nm | emission maximum (in ClC(Cl)Cl): 369 nm | emission maximum (in ClCCl): 368 nm | emission maximum (in c1ccccc1): 365 nm
SMILES: COc1cccc(-n2c(-c3ccc(F)cc3)nc(C)c2C)c1

SMILES: Cc1cc2ccccc2cc1C
emission maximum (in C1CCCCC1): 339.21 nm

SMILES: COc1ccc(N(c2ccc(C=C(c3ccccc3)c3ccccc3)cc2)c2ccc(OC)cc2)cc1
emission maximum (in Cc1ccccc1): 489 nm

emission maximum (in CCCCCC): 466 nm
SMILES: CC(C)[Si](C#Cc1ccc(C#C[Si](C(C)C)(C(C)C)C(C)C)c2nc3c(ccc4cc5ccccc5cc43)nc12)(C(C)C)C(C)C

SMILES: Cc1c(-c2nc(-c3ccccc3)nc(-c3ccccc3)n2)ccc(-n2c3ccccc3c3cc4c(cc32)C2c3ccccc3C4c3ccccc32)c1C
emission maximum (in Cc1ccccc1): 427 nm | emission maximum (in O=P(c1ccccc1)(c1ccccc1)c1ccccc1Oc1ccccc1P(=O)(c1ccccc1)c1ccccc1): 435 nm

SMILES: CN(C)c1ccc(/C=C2\CC/C(=C\c3ccc(C#N)cc3)C2=O)cc1
emission maximum (in C1CCOC1): 651 nm | emission maximum (in CC#N): 721 nm | emission maximum (in CC(C)=O): 718 nm | emission maximum (in CC(C)O): 647 nm | emission maximum (in CCCCO): 648 nm | emission maximum (in CCCCOC(C)=O): 631 nm | emission maximum (in CCCO): 644 nm | emission maximum (in CCO): 659 nm | emission maximum (in CCOC(=O)c1ccccc1): 641 nm | emission maximum (in CCOC(C)=O): 643 nm | emission maximum (in CCOCC): 580 nm | emission maximum (in CN(C)C=O): 740 nm | emission maximum (in CO): 693 nm | emission maximum (in CS(C)=O): 731 nm | emission maximum (in Cc1ccccc1): 558 nm | emission maximum (in ClC(Cl)(Cl)Cl): 513 nm | emission maximum (in ClC(Cl)Cl): 603 nm | emission maximum (in ClCCl): 643 nm | emission maximum (in Clc1ccccc1Cl): 625 nm | emission maximum (in O=C1CCCC1): 678 nm | emission maximum (in S=C=S): 535 nm | emission maximum (in c1ccccc1): 569 nm | emission maximum (in c1ccncc1): 673 nm

emission maximum (in CO): 663 nm | emission maximum (in CS(C)=O): 673 nm | emission maximum (in O): 669 nm
SMILES: CCCN1/C(=C/C=C(/C=C/c2sc3ccccc3[n+]2CCC)c2ccc([N+](=O)[O-])cc2)Sc2ccccc21

emission maximum (in CN(C)C=O): 410 nm
SMILES: Cc1ccc2nc(-c3cccc4nc(C)[nH]c(=O)c34)oc2c1

emission maximum (in O): 443 nm
SMILES: CC(C)(C)c1cccc2c([O-])cccc12

— the Deep4Chem optical property database
